The subject of one experiment is E. coli. The experiment is described as follows: Antiseptic and bactericidal effect found by the applicant (background). The experiment is classed as cell-based. Conditions: background statement, the present applicant has found.
The next experiment relates to S. aureus. The experiment is described as above. The experiment is classed as cell-based. Conditions: background statement, the present applicant has found.

Turning to glycerin ricinoleic acid monoester, the “antiseptic and bactericidal effect on E. coli (in words)” value in the experiment on E. coli was “almost no antiseptic and bactericidal effect”. For the same substance, the “antiseptic and bactericidal effects on S. aureus (in words)” value with S. aureus is “exerts antiseptic and bactericidal effects”.
